Reference: patent US9802941B2, “Compounds and methods for inhibiting histone demethylases” (Gilead Sciences, Inc., priority 2014, dated 2017)
Like-named read-outs stand apart in the source and are kept apart here.

How the values were obtained:
Format in all cases: biochemical
[1] = target: T1, KDM4C (JMJD2C) (Homo sapiens, UniProt Q9H3R0); assay: Histone lysine demethylase AlphaLISA assay, KDM4C
T1 construct: KDM4C; BRIC, Denmark; 1-349; E. coli; host or cells: E. coli
T1 sequence (Q9H3R0 1-349): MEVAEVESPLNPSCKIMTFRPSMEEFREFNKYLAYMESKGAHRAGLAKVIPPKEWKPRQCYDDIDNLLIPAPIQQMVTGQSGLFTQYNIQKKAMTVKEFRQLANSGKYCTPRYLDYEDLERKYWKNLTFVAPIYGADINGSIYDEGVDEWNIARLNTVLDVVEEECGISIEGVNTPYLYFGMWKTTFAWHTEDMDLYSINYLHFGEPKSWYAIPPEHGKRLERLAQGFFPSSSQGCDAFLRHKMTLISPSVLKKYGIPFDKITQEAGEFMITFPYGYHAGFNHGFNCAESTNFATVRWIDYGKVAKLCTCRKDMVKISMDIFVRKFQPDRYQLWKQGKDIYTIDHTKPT
Summary of the method: (§1)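 AlphaLISA demethylase assay: enzyme in buffer of 50 mM Hepes (pH 7.4-8.0), 0.003-0.01% Tween-20, 0.1% BSA, 5 μM (NH4)2Fe(SO4)2 preincubated 10 min with compound before substrate addition at room temperature. Product detected with acceptor beads then streptavidin donor beads, read after dark incubation.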

[2] = target: T2, KDM2B (FBXL10) (Homo sapiens, UniProt Q8NHM5); assay: Histone lysine demethylase AlphaLISA assay, KDM2B
T2 construct: KDM2B; BPS,; 1-650; Bac; purchased BPS Bioscience, US; host or cells: baculovirus system
T2 sequence (Q8NHM5 1-650): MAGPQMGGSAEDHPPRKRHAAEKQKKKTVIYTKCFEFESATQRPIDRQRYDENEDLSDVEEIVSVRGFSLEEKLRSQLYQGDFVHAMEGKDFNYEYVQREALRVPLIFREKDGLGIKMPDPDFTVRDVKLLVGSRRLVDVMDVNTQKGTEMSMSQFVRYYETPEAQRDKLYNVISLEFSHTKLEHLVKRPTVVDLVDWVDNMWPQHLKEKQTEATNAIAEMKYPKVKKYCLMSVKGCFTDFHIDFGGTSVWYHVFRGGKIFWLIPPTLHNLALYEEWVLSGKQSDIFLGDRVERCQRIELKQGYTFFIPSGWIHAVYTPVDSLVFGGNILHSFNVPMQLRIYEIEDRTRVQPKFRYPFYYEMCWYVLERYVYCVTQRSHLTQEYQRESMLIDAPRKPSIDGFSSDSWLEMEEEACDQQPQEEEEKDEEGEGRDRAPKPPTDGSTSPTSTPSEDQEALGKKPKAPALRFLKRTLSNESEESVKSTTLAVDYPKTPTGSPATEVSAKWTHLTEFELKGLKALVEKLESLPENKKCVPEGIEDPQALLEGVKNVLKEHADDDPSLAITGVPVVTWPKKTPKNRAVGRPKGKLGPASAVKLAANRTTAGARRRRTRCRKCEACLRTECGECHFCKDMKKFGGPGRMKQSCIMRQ
Summary of the method: as §1

[3] = target: T3, PHF8 (KDM7) (Homo sapiens, UniProt Q9UPP1); assay: Histone lysine demethylase AlphaLISA assay, PHF8
T3 construct: KDM7 (PHF8); BRIC; 1-1322; Bac
T3 sequence (Q9UPP1 37-440 limits assumed): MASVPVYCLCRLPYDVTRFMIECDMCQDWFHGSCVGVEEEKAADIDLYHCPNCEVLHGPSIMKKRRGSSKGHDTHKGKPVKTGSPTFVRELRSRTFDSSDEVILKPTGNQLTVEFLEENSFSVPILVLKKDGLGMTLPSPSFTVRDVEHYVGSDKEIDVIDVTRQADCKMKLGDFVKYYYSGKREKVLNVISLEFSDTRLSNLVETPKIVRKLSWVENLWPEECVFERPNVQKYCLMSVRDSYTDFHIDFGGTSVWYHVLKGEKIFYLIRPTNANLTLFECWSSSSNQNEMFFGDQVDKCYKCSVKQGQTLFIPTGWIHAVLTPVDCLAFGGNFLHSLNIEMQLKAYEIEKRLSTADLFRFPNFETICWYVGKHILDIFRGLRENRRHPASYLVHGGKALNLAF
Summary of the method: as §1

[4] = target: T4, KDM6A (UTX) (Homo sapiens, UniProt O15550); assay: Histone lysine demethylase AlphaLISA assay, KDM6A
T4 construct: KDM6A (UTX); BRIC; 919-1401; E. coli; host or cells: E. coli
T4 sequence (O15550 919-1401): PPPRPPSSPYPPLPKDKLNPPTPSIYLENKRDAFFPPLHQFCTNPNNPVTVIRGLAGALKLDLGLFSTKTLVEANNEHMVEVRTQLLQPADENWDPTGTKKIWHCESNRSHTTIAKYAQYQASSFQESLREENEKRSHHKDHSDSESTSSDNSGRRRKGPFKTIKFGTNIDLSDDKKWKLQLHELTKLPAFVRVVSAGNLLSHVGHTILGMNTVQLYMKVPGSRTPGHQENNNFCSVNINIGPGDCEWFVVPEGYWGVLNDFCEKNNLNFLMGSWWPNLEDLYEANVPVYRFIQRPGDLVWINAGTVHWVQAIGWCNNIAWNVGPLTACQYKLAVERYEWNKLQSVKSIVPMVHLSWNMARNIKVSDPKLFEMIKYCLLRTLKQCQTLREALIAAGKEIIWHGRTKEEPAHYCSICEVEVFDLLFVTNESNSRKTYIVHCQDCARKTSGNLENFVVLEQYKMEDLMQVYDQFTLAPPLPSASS
Experimental: The compounds of the application, or a pharmaceutically acceptable salt, or solvate, or prodrug thereof, are tested in an in vitro AlphaLISA assay. Enzymes are dissolved in enzyme buffer and incubated before they are added to DMSO solutions of compounds of the application, or a pharmaceutically acceptable salt, or solvate, or prodrug thereof, in enzyme buffer. The reaction mixture is then incubated for an additional period of time before substrate solution is added and then the resulting mixture again incubated. Acceptor beads and suspended Epigenetic Buffer from stock are added and the suspension is again incubated before a suspension of streptavidin donor beads in Epigenetic Buffer is added. After an additional period of incubation, the plates are read.
The ability of compounds of the application to inhibit the histone lysine demethylase activity in vitro of different enzymes was determined.
The reaction mixture was incubated for another 10 minutes before 5 μL of substrate solution was added and the resulting mixture was then incubated at room temperature. […] After incubation at room temperature in the dark, the plates were read.
Enzyme Buffer: 50 mM Hepes (pH 7.4-8.0), 0.003-0.01% Tween-20, 0.1% BSA; 5 μM (NH4)2Fe(SO4)2.

[5] = target: T5, KDM5B (PLU-1) (Homo sapiens, UniProt Q9UGL1); assay: Histone lysine demethylase AlphaLISA assay, KDM5B
T5 construct: BRIC; 1-809; E. coli; host or cells: E. coli
T5 sequence (Q9UGL1 1-809): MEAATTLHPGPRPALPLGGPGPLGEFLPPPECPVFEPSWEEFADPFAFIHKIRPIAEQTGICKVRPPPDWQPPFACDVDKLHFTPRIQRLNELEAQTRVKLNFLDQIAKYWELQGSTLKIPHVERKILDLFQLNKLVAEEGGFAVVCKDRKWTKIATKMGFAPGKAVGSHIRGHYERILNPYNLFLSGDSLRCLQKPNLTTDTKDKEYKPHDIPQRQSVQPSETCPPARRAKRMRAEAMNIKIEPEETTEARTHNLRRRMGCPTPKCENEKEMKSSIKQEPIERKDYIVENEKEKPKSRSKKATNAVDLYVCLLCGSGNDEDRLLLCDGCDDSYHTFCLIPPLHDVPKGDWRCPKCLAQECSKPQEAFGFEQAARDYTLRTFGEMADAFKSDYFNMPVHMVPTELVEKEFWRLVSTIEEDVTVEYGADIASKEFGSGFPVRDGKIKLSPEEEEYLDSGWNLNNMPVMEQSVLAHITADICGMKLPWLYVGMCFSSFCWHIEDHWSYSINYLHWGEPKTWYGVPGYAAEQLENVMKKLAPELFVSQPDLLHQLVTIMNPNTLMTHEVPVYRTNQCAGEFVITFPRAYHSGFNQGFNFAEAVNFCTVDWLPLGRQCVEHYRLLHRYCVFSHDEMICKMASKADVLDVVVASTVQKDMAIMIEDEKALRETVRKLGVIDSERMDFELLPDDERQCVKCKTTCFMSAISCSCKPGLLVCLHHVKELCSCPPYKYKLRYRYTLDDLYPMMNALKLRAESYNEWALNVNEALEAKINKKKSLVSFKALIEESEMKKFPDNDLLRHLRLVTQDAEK
Summary of the method: as §1

[6] = AlphaLISA assay, read-out: HDME Inhibition KDM4C (IC50)
[7] = AlphaLISA, in vitro, read-out: HDME Inhibition KDM4C
[8] = AlphaLISA, in vitro, read-out: HDME Inhibition KDM2B
[9] = AlphaLISA assay, read-out: HDME Inhibition PHF8 (IC50)
[10] = AlphaLISA, in vitro, read-out: HDME Inhibition PHF8
[11] = AlphaLISA assay, read-out: HDME Inhibition KDM6A (IC50)
[12] = AlphaLISA, in vitro, read-out: HDME Inhibition KDM6A
[13] = AlphaLISA assay, read-out: HDME Inhibition KDM5B (IC50)
[14] = AlphaLISA, in vitro, read-out: HDME Inhibition KDM5B
[15] = AlphaLISA assay, read-out: HDME Inhibition KDM2B (IC50)

IC50 [1, 6] | IC50 [1, 7] | IC50 [2, 8] | IC50 [3, 9] | IC50 [3, 10] | IC50 [4, 11] | IC50 [4, 12] | IC50 [5] | IC50 [5, 13] | IC50 [5, 14] | IC50 [2, 15] | Compound
> 10 µM | > 10 µM | 1.6 µM | > 10 µM | > 10 µM | > 10 µM | > 10 µM | 3.76 µM |  |  |  | C=Cc1cc(C(=O)O)cc(CNCc2nccn2Cc2ccc(F)cc2)n1 [Compound 12, 2-ethenyl-6-{[({1-[(4-fluorophenyl)methyl]-1H-imidazol-2-yl}methyl)amino]methyl}pyridine-4-carboxylic acid]
> 10 µM | > 10 µM | 2.27 µM |  | 5.78 µM | > 10 µM | > 10 µM |  | > 10 µM | > 10 µM |  | CCc1cc(C(=O)O)cc(CNCc2nccn2Cc2ccc(F)cc2)n1 [Compound 13, 2-ethyl-6-{[({1-[(4-fluorophenyl)methyl]-1H-imidazol-2-yl}methyl)amino]methyl}pyridine-4-carboxylic acid]
> 10 µM | > 10 µM | 3.23 µM |  | 5.6 µM | > 10 µM | > 10 µM |  | > 10 µM | > 10 µM |  | CCCCCCc1cccnc1CCNCc1cc(C(=O)O)cc(C)n1 [Compound 14, 2-({[2-(3-hexylpyridin-2-yl)ethyl]amino}methyl)-6-methylpyridine-4-carboxylic acid]
> 10 µM | > 10 µM | 5.68 µM | > 6 µM | > 6 µM | > 10 µM | > 10 µM |  | > 10 µM | > 10 µM |  | CCCCc1cccnc1CCNCc1cc(C(=O)O)cc(C)n1 [Compound 15, 2-({[2-(3-butylpyridin-2-yl)ethyl]amino}methyl)-6-methylpyridine-4-carboxylic acid]
> 10 µM | > 10 µM | > 6.8 µM |  | 3.49 µM | > 9 µM | > 9 µM |  | > 10 µM | > 10 µM | > 6.8 µM | CCCCCc1cccnc1CCNCc1cc(C(=O)O)cc(C)n1 [Compound 16, 2-methyl-6-({[2-(3-pentylpyridin-2-yl)ethyl]amino}methyl)pyridine-4-carboxylic acid]
> 10 µM | > 10 µM | > 10 µM | > 10 µM | > 10 µM | > 10 µM | > 10 µM |  | > 10 µM | > 10 µM | > 10 µM | COc1ccc(CCn2ccnc2CNCc2cc(C(=O)O)cc(C)n2)cc1 [Compound 17, 2-{[({1-[2-(4-methoxyphenyl)ethyl]-1H-imidazol-2-yl}methyl)amino]methyl}-6-methylpyridine-4-carboxylic acid]
> 10 µM | > 10 µM | 3.93 µM |  | 3.03 µM | > 10 µM | > 10 µM |  | > 10 µM | > 10 µM |  | Cc1cc(C(=O)O)cc(CNCc2nccn2CCC(C)C)n1 [Compound 18, 2-methyl-6-[({[1-(3-methylbutyl)-1H-imidazol-2-yl]methyl}amino)methyl]pyridine-4-carboxylic acid]
> 10 µM | > 10 µM | 1.15 µM |  | 0.89 µM | > 10 µM | > 10 µM |  |  | 0.348 µM |  | Cc1cc(C(=O)O)cc(CNC2CCCc3cccnc32)n1 (stereo not drawn) [Compound 19, 2-methyl-6-{[(5,6,7,8-tetrahydroquinolin-8-yl)amino]methyl}pyridine-4-carboxylic acid]
> 10 µM | > 10 µM | 5.43 µM | > 10 µM | > 10 µM | > 10 µM | > 10 µM |  | > 10 µM | > 10 µM |  | Cc1cc(C(=O)O)cc(CNCCc2ncccc2CCC(C)C)n1 [Compound 20, 2-methyl-6-[({2-[3-(3-methylbutyl)pyridin-2-yl]ethyl}amino)methyl]pyridine-4-carboxylic acid]
> 10 µM | > 10 µM | 5.35 µM | > 10 µM | > 10 µM | > 10 µM | > 10 µM |  | > 10 µM | > 10 µM |  | CCCCCCCc1cccnc1CCNCc1cc(C(=O)O)cc(C)n1 [Compound 21, 2-({[2-(3-heptylpyridin-2-yl)ethyl]amino}methyl)-6-methylpyridine-4-carboxylic acid]
> 10 µM | > 10 µM | > 10 µM | > 10 µM | > 10 µM | > 10 µM | > 10 µM |  | > 10 µM | > 10 µM | > 10 µM | COc1ccc(CCn2ccnc2CNCc2cc(C(=O)O)cc(C)n2)cc1OC [Compound 22, 2-{[({1-[2-(3,4-dimethoxyphenyl)ethyl]-1H-imidazol-2-yl}methyl)amino]methyl}-6-methylpyridine-4-carboxylic acid]
> 10 µM | > 10 µM | > 10 µM | > 10 µM | > 10 µM | > 10 µM | > 10 µM |  | > 10 µM | > 10 µM | > 10 µM | Cc1cc(C(=O)O)cc(CN[C@H](CO)CC(C)C)n1 [Compound 23, 2-({[(2S)-1-hydroxy-4-methylpentan-2-yl]amino}methyl)-6-methylpyridine-4-carboxylic acid]
